Experimental data reported in patent US10189860B2, “Hydrates of dolutegravir sodium” (LEK PHARMACEUTICALS D.D., priority 2014, dated 2019).
Where “and” joins values, the source holds several entries; their conditions need not be identical. Equal values may be shown once. Entries after “also recorded” stand apart in the source; their conditions may differ.

Legend:
[1] = Gravimetric moisture sorption/desorption (GMSD) experiments; assay type: physicochemical; settings: 25±0.1° C.
Description: Comparative gravimetric moisture sorption/desorption experiments at 25±0.1° C. were conducted with dolutegravir sodium monohydrate of WO 2010/068253 A1 and the hydrates of the present invention designated form HxA and form Hy1B.
The water values at varying relative humidities were obtained by recording moisture sorption/desorption isotherms with a SPS-11 moisture sorption analyzer (MD Messtechnik, Ulm, D). The samples were weighed into Teflon sample holders. […] The equilibrium condition for each step was set to a mass constancy of ±0.005% over 60 min. The temperature was 25±0.1° C. The water content of the samples was determined after the moisture sorption/desorption experiments with a TGA 7 system (Perkin Elmer, Norwalk, Conn., USA) using the Pyris 2.0 software. The samples were weighed into Al pans (50 μL). Dry nitrogen was used as purge gas (purge rate: 20 mL/min). The samples were heated from 25 to 200° C. using a heating rate of 10° C./min.

[2] = Particle morphology by scanning electron micrograph; assay type: physicochemical; settings: SEM
Text: A figure of the morphology of Form I and form HxA is depicted in FIG. 13 (Form I) and 14 (form HxA), at different magnifications (500× magnification (Form I), 1.500× magnification (Form I and form HxA), and 5.000× magnification (form HxA)).

[3] = Compressibility testing of API (bulk/tapped volume, compressibility index); assay type: physicochemical; settings: API batches; for Compressibility index: (Vb−Vt)/Vb; for Flow character according to PhEur: PhEur Chapter 2.9.36 Powder flow
Description: As described in Example 8 herein above, the sodium salt of dolutegravir was prepared in two polymorphic forms (Form I and form HxA). […] Compressibilty index is an indirect measure of different powder properties such as size, shape, surface area, cohesiveness etc. (PhEur). Bulk (Vb) and tapped (Vt) volume were measured for several batches of both forms and the compressibilty index (%) is determined based on Vb and Vt. 250 mL volumetric cylinder with test samples weight approximately 25 g were used. The compressibility index was calculated according to formula ((Vb−Vt)/Vb).

[4] = API particle size by laser diffraction
[5] = listed as dolutegravir sodium monohydrate of WO 2010/068253 A1
[6] = 95% RH, listed as dolutegravir sodium monohydrate of WO 2010/068253 A1

| Compound | Remarks: hysteresis between sorption and desorption isotherms [1] | Remarks: stable at / preserves crystal structure (RH range) [1] | Δm sorption [0-90% RH] [1] | Δm sorption [30-90% RH] [1] | morphology of particles [2] | Bulk volume [3] | Tapped volume [3] | Compressibility index [3] | Flow character according to PhEur [3] | d0.1 [4] | d0.5 [4] | d0.9 [4] | further results |
| --- | --- | --- | --- | --- | --- | --- | --- | --- | --- | --- | --- | --- | --- |
| C[C@@H]1CCO[C@H]2Cn3cc(C(=O)NCc4ccc(F)cc4F)c(=O)c([O-])c3C(=O)N12.[Na+] [Form HxA, sodium (4R,12aS)-9-((2,4-difluorobenzyl)carbamoyl)-4-methyl-6,8-dioxo-3,4,6,8,12,12a-hexahydro-2H-pyrido[1′,2′:4,5]pyrazino[2,1-b][1,3]oxazin-7-olate] | no significant hysterises | stable at 0-95% RH | +3.4% | +2.5% | thin-plate like morphology | 4.02 mL/g and 2.88 mL/g and 3.30 mL/g and 2.89 mL/g | 2.86 mL/g and 2.14 mL/g and 2.60 mL/g and 2.25 mL/g | 29% and 26% and 21% and 22% | Poor and Passable | 1.3 μm | 3.1 μm | 7.4 μm | Remarks: structural changes [1]: no structural changes observed; Remarks: hysteresis between sorption and desorption isotherms ([1]; listed as form HxA): absence of a hysteresis; hygroscopicity ([1]; listed as form HxA): significantly less hygroscopic than the monohydrate of WO 2010/068253 A1; maximum water content ([1]; 95% RH): about 3.8%; mol of water per mol of dolutegravir sodium ([1]; 95% RH): 0.9 mol of water per mol of dolutegravir sodium; maximum water content ([1]; 95% RH, listed as form HxA): 3.9%; mol of water per mol of dolutegravir sodium ([1]; about 30% RH): 0.2 mol of water per mol of dolutegravir sodium; water content ([1]; about 30% RH): about 0.9%; mol of water per mol of dolutegravir sodium ([1]; about 70% RH): 0.7 mol of water per mol of dolutegravir sodium; particle sizes (primary particles) [2]: about 5 μm; morphology of particles ([2]; listed as HxA form): thin-plate like morphology; Compressibility index ([3]; listed as HxA form): 22-29%; Flow character according to PhEur ([3]; listed as HxA form): “poor” to “passable”; Particle size ([4]; achieved with crystallization only): below 10 μm |
| C[C@@H]1CCO[C@H]2Cn3cc(C(=O)NCc4ccc(F)cc4F)c(=O)c([O-])c3C(=O)N12.[Na+] [Form Hy1B, sodium (4R,12aS)-9-((2,4-difluorobenzyl)carbamoyl)-4-methyl-6,8-dioxo-3,4,6,8,12,12a-hexahydro-2H-pyrido[1′,2′:4,5]pyrazino[2,1-b][1,3]oxazin-7-olate] | absence of a significant hysteresis; also recorded: no significant hysterises |  | +4.8% | +2.4% |  |  |  |  |  |  |  |  | hygroscopicity [1]: significantly less hygroscopic than the monohydrate of WO 2010/068253 A1; mol of water per mol of dolutegravir sodium ([1]; 90% RH): 1.3 mol of water per mol of dolutegravir sodium |
| C[C@@H]1CCO[C@H]2Cn3cc(C(=O)NCc4ccc(F)cc4F)c(=O)c([O-])c3C(=O)N12.[Na+] [Form I, reference compound] |  |  |  |  | long needle like crystals | 5.55 mL/g and 7.00 mL/g and 4.89 mL/g | 3.79 mL/g and 4.56 mL/g and 3.23 mL/g | 32% and 35% and 34% | Very poor | 3.5 μm | 10 μm | 40 μm | needle lengths [2]: ≤ 70 μm |
| C[C@@H]1CCO[C@H]2Cn3cc(C(=O)NCc4ccc(F)cc4F)c(=O)c([O-])c3C(=O)N12.[Na+] [MH of WO 2010/068253, reference compound] |  | stable at 30-60% RH, | +14.0% | +10.7% |  |  |  |  |  |  |  |  | Remarks: dehydration below [1]: dehydration below 30% RH,; Remarks: hysteresis at (RH range) [1]: hysterises at 40-95% RH; Remarks: dehydration below [1, 5]: Below 30 % RH; hygroscopicity [1, 5]: very hygroscopic; maximum water content [1, 6]: about 21.8%; mol of water per mol of dolutegravir sodium [1, 6]: 5.6 mol of water per mol of dolutegravir sodium |
